Test results: paper PMC10194703 (Nature structural & molecular biology, 2023)
Several values for one entry are separate records, joined by “and”; a condition that tells them apart may be missing. Equal entries are not always repeated.

Experiments:
SthK CNBD [1] = assay: AFM single molecule force spectroscopy; format: binding; conditions: for Ka: individual binding sites, Ka=Ka(2D)mr, mr=0.03 binding-sites/nm^2; for Ka(2D): probabilistic binding frequency model fit, contact time 0.02-1.00 s
[2] = target: SthK full-length channels; conditions: read-out: affinity; SthK full-length channels in amphipol; cited from earlier work
SthK = conditions: cited from earlier work; for open probability Po: depolarized membrane potentials (+100 mV)
His6-C-linker-CNBD = target: T1, His6-C-linker-CNBD (Winmispira thermophila, UniProt G0GA88); assay: microscale thermophoresis; format: binding; conditions: 50 nM labeled His6-C-linker-CNBD; cN 0.00305-100 μM
T1 sequence (G0GA88 226-423): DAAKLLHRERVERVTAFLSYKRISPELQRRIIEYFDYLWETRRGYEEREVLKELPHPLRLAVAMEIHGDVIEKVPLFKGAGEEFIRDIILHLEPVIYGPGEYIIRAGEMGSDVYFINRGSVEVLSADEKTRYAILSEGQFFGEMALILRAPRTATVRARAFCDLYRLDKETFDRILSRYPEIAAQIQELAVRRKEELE

SthK CNBD [3] = assay: joint Bell-Evans fitting of AFM-SMFS and MDS dynamic force spectra; conditions: Bell-Evans fit, AFM-SMFS + MDS joint data; 0.02 s bond formation
[4] = target: His6-C-linker-CNBD construct of SthK (residues 226-423); assay: SEC
[5] = target: His6-C-linker-CNBD construct of SthK (residues 226-423); assay: AFM imaging
[6] = interchange between state 1 and state 2 bonds

Compound | bond formation time needed to fully populate state 2 (SthK CNBD [1]) | Ka (SthK CNBD [1]) | k1 (forward rate constant for entering the deeper binding mode) (SthK CNBD [1]; [6]) | k−1 (reverse rate constant for entering the deeper binding mode) (SthK CNBD [1]; [6]) | Ka(2D) (SthK CNBD [1]) [nm^2] | Kd [2] [nM] | open probability Po (SthK) | koff (SthK CNBD [1]; Bell-Evans fit, AFM-SMFS only, 0.02 s (20 ms) bond formation time) [s⁻¹] | kon(2D) (SthK CNBD [1]; kon(2D)=Ka(2D)koff) [nm^2/s] | kon (SthK CNBD [1]; molecular on rate, kon=Kakoff) [s⁻¹] | Kd (His6-C-linker-CNBD) [nM] | fold lower open probability than cAMP (SthK; single channel recordings) | koff (SthK CNBD [3]) [s⁻¹] | stoichiometry N [4] | stoichiometry N [5]
Nc1ncnc2c1ncn2[C@@H]1O[C@@H]2COP(=O)(O)O[C@H]2[C@H]1O [cAMP, cyclic adenosine monophosphate] | ~ 0.2 s | 0.31 ± 0.04 | 5.4 ± 0.7 1/s and 5.4±0.7 * 1/s | 4.8 ± 0.8 1/s and 4.8±0.8 * 1/s | 10.4 ± 1.3 | 600 | ~ 0.4 | – | – | – | – | – | – | – | –
Nc1nc2c(ncn2[C@@H]2O[C@@H]3COP(=O)(O)O[C@H]3[C@H]2O)c(=O)[nH]1 [cGMP, cyclic guanosine monophosphate] | – | 0.15 ± 0.02 | – | – | 4.9 ± 0.5 | 2700 | ~ 0.001 | 7.7 ± 1.5 | 37.8 ± 9.7 | 1.2 ± 0.3 | 3300 ± 1800 | ~ 1000 fold | 13.9 ± 6.9 | – | –
His6-C-linker-CNBD construct of SthK (residues 226-423) (domain or fragment) | – | – | – | – | – | – | – | – | – | – | – | – | – | 4 | 4
